Test results reported in patent publication US10829493B2, “Compositions and methods for treating KIT- and PDGFRA-mediated diseases” (Blueprint Medicines Corporation, priority 2019, dated 2020).
Where two headings read alike, the source gives them in different places.

How the values were obtained:
wt KIT kinase = wt KIT kinase (Homo sapiens (Human), UniProt P10721); assay: Wild-type KIT binding assay (Kd determination, phage-tagged kinase, qPCR)
Procedure: Kd Determinations. For most assays, including wt KIT kinase, kinase-tagged T7 phage strains were prepared in an E. coli host derived from the BL21 strain. E. coli were grown to log-phase and infected with T7 phage and incubated with shaking at 32° C. until lysis. […] The liganded beads were blocked with excess biotin and washed with blocking buffer (SeaBlock (Pierce), 1% BSA, 0.05% Tween 20, 1 mM DTT) to remove unbound ligand and to reduce non-specific binding. […] Test compounds were prepared as 111× stocks in 100% DMSO. Kds were determined using an 11-point 3-fold compound dilution series with three DMSO control points. […] The compounds were then diluted directly into the assays such that the final concentration of DMSO was 0.9%. All reactions were performed in polypropylene 384-well plate. Each was a final volume of 0.02 ml. […] The kinase concentration in the eluates was measured by qPCR.
Binding Constants (Kds). Binding constants (Kds) were calculated with a standard dose-response curve using the Hill equation: Response=Background+Signal−Background 1+(KdHill Slope/DoseHill Slope). The Hill Slope was set to −1. Curves were fitted using a non-linear least square fit with the Levenberg-Marquardt algorithm.

UT-7 cells = assay: UT-7 cell proliferation with SCF stimulation as a measure of wild-type KIT activity (CellTiter-Glo); format: cell-based, human; conditions: Homo sapiens, UT7, 72 h, SCF-stimulated UT-7 cell proliferation
Text: UT-7 Cell Proliferation with SCF Stimulation Assay as a Measure of Wild-Type KIT Activity
UT-7 cells are human megakaryoblastic leukemia cell lines that can be grown in culture with dependence on granulocyte macrophage colony stimulating factor (GM-CSF) or stem cell factor (SCF). UT-7 cells respond to SCF stimulation by activation of the KIT receptor tyrosine kinase and subsequent downstream signaling that can support cell growth and proliferation (Kuriu et al, 1999; Komatsu et al, 1991; Sasaki et al, 1995). Test compounds were assayed for their ability to inhibit SCF-stimulated proliferation of UT-7 cells.
Inhibition of SCF-stimulated UT-7 cell proliferation was assessed using the CellTiter-Glo assay that quantifies the amount of adenosine triphosphate (ATP) present, which is a readout of metabolically active cells and is directly proportional to the number of viable cells in culture. The ability of test compounds to inhibit SCF-stimulated UT-7 cell proliferation was determined using a 10-point dose curve ranging from 25 μM to 95.4 pM of test compound.
UT-7 cells were maintained in IMDM supplemented with 10% FBS, 5 ng/mL GM-CSF and 100 units/mL Penicillin-Streptomycin and grown in a 37° C. humidified tissue culture incubator. UT-7 cells were washed once with serum free, GM-CSF free IMDM. Cells were then resuspended in IMDM containing 4% FBS and 50 ng/mL SCF and seeded at 2500 cells per well in a volume of 22 μL in a 384-well microplate. A 10-point dose concentration series of test compounds (25.0 μM to 95.4 pM) were then added to the cells in a volume of 3.1 μL to each well (0.25% DMSO final concentration) and placed in a tissue culture incubator (5% CO2, 37° C.) for 72 hours. After 3-days with test compound, CellTiter-Glo reagent was prepared fresh and 25 μL of reagent was added to each well. The plate was mixed by shaking for 10 minutes at RT at 300 rpm on a plate shaker. The plate was read on an EnVision plate reader using the Ultra Sensitive Luminescence protocol for a 384-well plate.

[1] = Brain penetration in rats, brain to plasma ratios (Kp,brain, Kpuu,brain); format: in vivo, Sprague-Dawley rats; conditions: for Kp uu at 24 h / Kp at 24 h: Sprague-Dawley, rat, brain, intravenous, 1 mg/kg/hr; for Kp at 24 h / Rat Kp: rat brain to plasma ratio; for Kp at 24 h: read-out: Rat Kp
Text: To understand the brain penetration, brain to plasma ratios of the compounds were obtained in Sprague-Dawley (SD) rats. In vivo equilibrium distribution between blood and brain in preclinical species such as rats is a commonly used parameter to evaluate brain penetration. Kp,brain is the ratio of concentrations in brain and blood (Cbrain/Cplasma) The compound's passive diffusion characteristics, its affinity for membrane transporters at the blood-brain barrier (BBB), and the relative drug binding affinity differences between the plasma proteins and brain tissue influence the Kp,brain.
The animals received IV infusion of 1 mg/kg/hr of the compound over 24 hours via jugular vein cannulation. At 24 hours, blood was collected via tail vein bleeding or cardiac puncture (under anesthesia) and centrifuged to obtain plasma samples. Brain tissues were collected and homogenized with phosphate-buffered saline (PBS). The concentrations of the compounds were obtained in the plasma and brain homogenates by LC-MS/MS analysis.

PDGFRα D842V = PDGFRα D842V (Homo sapiens (Human), UniProt P16234, D842V); assay: PDGFRα D842V biochemical enzymatic activity assay (EZReader 2 mobility shift); conditions: at APPKM for ATP, 25 μM ATP, 90 minutes
Chain of PDGFRα D842V (P16234 24-1089 D842V): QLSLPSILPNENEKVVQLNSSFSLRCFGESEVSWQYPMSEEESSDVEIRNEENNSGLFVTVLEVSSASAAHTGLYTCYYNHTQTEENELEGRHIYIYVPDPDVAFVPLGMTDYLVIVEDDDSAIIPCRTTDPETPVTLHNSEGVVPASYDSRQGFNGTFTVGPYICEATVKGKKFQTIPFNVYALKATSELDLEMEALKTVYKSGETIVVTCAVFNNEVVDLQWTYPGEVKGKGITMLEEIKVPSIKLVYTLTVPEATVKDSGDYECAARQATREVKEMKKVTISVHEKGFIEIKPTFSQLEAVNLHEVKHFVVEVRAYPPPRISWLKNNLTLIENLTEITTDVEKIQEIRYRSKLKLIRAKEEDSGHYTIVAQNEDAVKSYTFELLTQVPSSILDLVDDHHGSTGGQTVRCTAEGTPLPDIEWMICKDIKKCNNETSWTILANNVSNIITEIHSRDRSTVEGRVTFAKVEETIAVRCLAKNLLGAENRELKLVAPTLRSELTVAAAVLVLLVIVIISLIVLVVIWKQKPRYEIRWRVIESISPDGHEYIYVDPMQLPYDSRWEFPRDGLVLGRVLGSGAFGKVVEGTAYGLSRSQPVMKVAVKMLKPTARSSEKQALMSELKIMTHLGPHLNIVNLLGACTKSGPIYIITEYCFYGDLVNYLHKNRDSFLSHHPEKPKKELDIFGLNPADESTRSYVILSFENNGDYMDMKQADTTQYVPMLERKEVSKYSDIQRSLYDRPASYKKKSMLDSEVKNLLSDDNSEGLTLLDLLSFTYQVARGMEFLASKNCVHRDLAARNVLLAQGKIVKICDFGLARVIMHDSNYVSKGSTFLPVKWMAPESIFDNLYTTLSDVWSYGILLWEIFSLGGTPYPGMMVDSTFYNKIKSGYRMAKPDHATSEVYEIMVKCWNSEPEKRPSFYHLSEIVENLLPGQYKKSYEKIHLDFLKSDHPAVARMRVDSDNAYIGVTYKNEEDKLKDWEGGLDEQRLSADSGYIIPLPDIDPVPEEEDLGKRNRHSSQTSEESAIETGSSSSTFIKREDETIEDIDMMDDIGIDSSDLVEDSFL
Text: (§1) PDGFRα and KIT enzymatic activity was monitored using the Perkin Elmer electrophoretic mobility shift technology platform, the EZReader 2.
(§2) Within the linear, steady-state phase of the kinase enzymatic reaction, the mixed pool of phosphorylated (product) and non-phosphorylated (substrate) peptides was passed through the microfluidic system of the PerkinElmer EZ Reader 2, under an applied electric potential difference. The presence of the phosphate group on the product peptide provided a difference in mass and charge between that of the substrate peptide, resulting in a separation of the substrate and product pools in the sample (Perrin et al., Expert Opin Drug Discovery 2010 Jan. 5(1):51-63).
(§3) As the product and substrate peptide mixture passes the lasers within the instrument, these pools are detected (λex=488 nm, λem=568 nm) and resolved as separate peaks. The ratio between these peaks reflects the activity of the compound at that concentration, in that well, under those conditions.
Inhibition of KIT (D816V) PDGFRα (D842V) Mutant Biochemical Enzymatic Activity
(§4) All test articles were dissolved in 100% DMSO at a stock concentration of 10 mM. A 100×, 10-point, 4-fold serial dilution of all test compounds was created in 100% DMSO, starting at a relevant concentration, usually 1 mM. A volume of 0.130 μL of each concentration was transferred to the relevant well of a 384-well assay plate (Greiner 781 201) using a TTPLabtech Mosquito nano-liter dispenser. Using the Multidrop, the remaining constituents of the reaction were then added to the 0.130 μL of compound as follows:
The reaction was stopped by the addition of 70 μl of Stop buffer (100 mM HEPES pH 7.5, 0.015% Brij 35, 35 mM EDTA and 0.2% of Coating Reagent 3, Caliper Lifesciences). The plate was read on a Caliper EZReader 2.

KIT D816V [2] = molecular target: KIT D816V (Homo sapiens (Human), UniProt P10721, D816V); assay: KIT D816V biochemical enzymatic activity assay (EZReader 2 mobility shift); conditions: at APPKM for ATP, 20 μM ATP, 60 minutes
Chain of KIT D816V (Homo sapiens (Human), UniProt P10721, D816V) (P10721 26-976 D816V): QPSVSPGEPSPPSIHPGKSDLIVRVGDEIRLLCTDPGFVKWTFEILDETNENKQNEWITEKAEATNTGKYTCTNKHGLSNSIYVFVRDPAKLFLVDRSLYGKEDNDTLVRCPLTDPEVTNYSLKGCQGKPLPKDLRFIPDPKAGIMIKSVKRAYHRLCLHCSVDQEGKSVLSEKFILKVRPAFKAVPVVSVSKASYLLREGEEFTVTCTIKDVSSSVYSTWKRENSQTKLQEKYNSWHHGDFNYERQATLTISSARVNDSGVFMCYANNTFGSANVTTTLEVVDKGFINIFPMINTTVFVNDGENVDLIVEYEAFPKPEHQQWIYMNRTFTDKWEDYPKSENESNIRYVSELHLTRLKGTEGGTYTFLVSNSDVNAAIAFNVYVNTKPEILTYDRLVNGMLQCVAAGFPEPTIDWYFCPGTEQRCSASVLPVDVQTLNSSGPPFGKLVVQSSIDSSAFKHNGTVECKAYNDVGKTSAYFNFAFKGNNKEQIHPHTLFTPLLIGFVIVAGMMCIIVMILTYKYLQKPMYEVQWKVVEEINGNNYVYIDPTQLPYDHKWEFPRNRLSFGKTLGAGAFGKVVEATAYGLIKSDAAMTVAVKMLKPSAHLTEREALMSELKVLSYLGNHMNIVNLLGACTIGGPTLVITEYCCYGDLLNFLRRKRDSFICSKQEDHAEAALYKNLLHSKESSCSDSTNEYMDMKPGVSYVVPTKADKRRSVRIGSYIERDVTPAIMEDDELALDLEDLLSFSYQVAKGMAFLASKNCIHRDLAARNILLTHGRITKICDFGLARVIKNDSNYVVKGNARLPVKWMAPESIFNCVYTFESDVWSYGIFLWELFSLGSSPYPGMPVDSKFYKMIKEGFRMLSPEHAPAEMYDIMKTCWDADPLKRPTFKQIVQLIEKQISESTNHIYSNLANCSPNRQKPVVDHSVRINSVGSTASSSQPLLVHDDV
Text: as §1, §2, §3, §4
The plate was read on a Caliper EZReader 2.

KIT D816V [3] = molecular target: KIT D816V (Homo sapiens (Human), UniProt P10721, D816V/V560G); assay: HMC1.2 autophosphorylation assay (phospho-Y719 KIT AlphaLISA); format: cell-based; conditions: HMC1.2 cell line, KIT autophosphorylation at tyrosine 719, 90 minutes; read-out: KIT (P-KIT HMC1.2 (nM))
Chain of KIT D816V (Homo sapiens (Human), UniProt P10721, D816V/V560G) (P10721 26-976 V560G/D816V): as the sequence (P10721 26-976 D816V) above, with V535G counted along it
Procedure: 10,000 HMC1.2 cells were incubated in 22 μL culture media (phenol-red free IMDM, no serum) in each well of a 384-well plate and serum starved overnight in a tissue culture incubator (5% CO2, 37° C.). […] 10 μL of 100 μg/mL streptavidin donor beads (Perkin Elmer) were added to each well, blocked from light with solid black adhesive and shaken at 300 rpm at room temperature for 2 hours. Fluorescence signal was obtained on Envision (Perkin Elmer) by AlphaScreen 384 well HTS protocol.

[4] = homogenate rat brain, read-out: Rat Kp, uu Homogenate
[5] = rat brain slice, read-out: Rat Kp, uu Brain slice

Chain of wt KIT kinase (P10721 26-976): as the sequence (P10721 26-976 D816V) above, with V791D counted along it

Kd (wt KIT kinase) [nM] | Kp uu at 24 h [1, 4] | Kp at 24 h [1] | Rat Kp [1] | IC50 (PDGFRα D842V) [nM] | IC50 (KIT D816V [2]) [nM] | IC50 (KIT D816V [3]) [nM] | Kp uu at 24 h [1, 5] | SMILES | IC50 (UT-7 cells) [nM]
< 10 | 0.22 | < 0.39 | 0.35 | ≤ 0.3 | ≤ 0.3 | < 4.5 | – | C[C@](N)(c1ccc(F)cc1)c1cnc(N2CCN(c3ncnn4cc(-c5cnn([C@@H]6CCOC6)c5)cc34)CC2)nc1 [Compound 14, (S)-1-(4-Fluorophenyl)-1-(2-(4-(6-(1-((R)-tetrahydrofuran-3-yl)-1H-pyrazol-4-yl)pyrrolo[2,1-f][1,2,4]triazin-4-yl)piperazin-1-yl)pyrimidin-5-yl)ethanamine] | 150 to 200
< 10 | 0.62 | 0.9 | – | ≤ 0.3 | ≤ 0.3 | < 4.5 | ≤ 0.1 | C[C@](N)(c1ccc(F)cc1)c1cnc(N2CCN(c3ncnn4cc(-c5cnn([C@H]6CCOC6)c5)cc34)CC2)nc1 [Compound 15, (S)-1-(4-Fluorophenyl)-1-(2-(4-(6-(1-((S)-tetrahydrofuran-3-yl)-1H-pyrazol-4-yl)pyrrolo[2,1-f][1,2,4]triazin-4-yl)piperazin-1-yl)pyrimidin-5-yl)ethanamine] | 150 to 200
< 10 | ≤ 0.2 | 0.43 | – | ≤ 0.3 | ≤ 0.3 | < 4.5 | ≤ 0.1 | C[C@](N)(c1ccc(F)cc1)c1cnc(N2CCN(c3ncnn4cc(-c5cnn(CC6COC6)c5)cc34)CC2)nc1 [Compound 8, (S)-1-(4-fluorophenyl)-1-(2-(4-(6-(1-(oxetan-3-ylmethyl)-1H-pyrazol-4-yl)pyrrolo[2,1-f][1,2,4]triazin-4-yl)piperazin-1-yl)pyrimidin-5-yl)ethan-1-amine] | < 90
< 10 | ≤ 0.2 | 0.93 | – | ≤ 0.3 | ≤ 0.3 | 4.6 to 10 | ≤ 0.1 | C[C@](N)(c1ccc(F)cc1)c1cnc(N2CCN(c3ncnn4cc(-c5cnn(C6CCOCC6)c5)cc34)CC2)nc1 [Compound 16, (S)-1-(4-Fluorophenyl)-1-(2-(4-(6-(1-(tetrahydro-2H-pyran-4-yl)-1H-pyrazol-4-yl)pyrrolo[2,1-f][1,2,4]triazin-4-yl)piperazin-1-yl)pyrimidin-5-yl)ethan-1-amine] | 150 to 200
< 10 | – | – | 0.23 | ≤ 0.3 | 0.31 to 1 | < 4.5 | – | C[C@](N)(c1ccc(F)cc1)c1cnc(N2CCN(c3ncnn4cc(-c5cnn([C@H]6C[C@@H](O)C6)c5)cc34)CC2)nc1 [Compound 10, cis-3-(4-(4-(4-(5-((S)-1-Amino-1-(4-fluorophenyl)ethyl)pyrimidin-2-yl)piperazin-1-yl)pyrrolo[2,1-f][1,2,4]triazin-6-yl)-1H-pyrazol-1-yl)cyclobutanol] | < 90
< 10 | – | – | – | ≤ 0.3 | ≤ 0.3 | < 4.5 | 0.04 | C[C@](N)(c1ccc(F)cc1)c1cnc(N2CCN(c3ncnn4cc(-c5cnn([C@@H]6COC[C@H]6O)c5)cc34)CC2)nc1 (single isomer, unassigned) [Compound 19] | 90.1 to 150
< 10 | 0.36 | – | – | ≤ 0.3 | 0.31 to 1 | < 4.5 | ≤ 0.1 | C[C@](N)(c1ccc(F)cc1)c1cnc(N2CCN(c3ncnn4cc(-c5cnn([C@H]6CC[C@@H]6O)c5)cc34)CC2)nc1 (single isomer, unassigned) [Compound 21] | 90.1 to 150
